In PubChem BioAssay (NCI):
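How tested: cells in 96-well plates exposed to compound for 48 hours at five concentrations. Here, GI50 denotes the concentration required for 50% inhibition of growth. TGI is the concentration that stops growth completely.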

Experiments:
Experiment in all cases: growth of human tumour cells (NCI), 48 h
[1] = system: OVCAR-4 ovarian
[2] = system: HCC-2998 colon
[3] = system: ACHN renal
[4] = system: DU-145 prostate
[5] = system: U251 CNS
[6] = system: HT29 colon
[7] = system: SW-620 colon
[8] = system: MDA-MB-468 breast
[9] = system: NCI-H460 lung
[10] = system: NCI-H23 lung
[11] = system: HCT-15 colon
[12] = system: SK-MEL-5 melanoma
[13] = system: UO-31 renal
[14] = system: RPMI-8226 leukemia
[15] = system: A549 NSCLC
[16] = system: SK-MEL-2 melanoma
[17] = system: K-562 leukemia
[18] = system: A498 renal
[19] = system: TK-10 renal
[20] = system: 786-0 renal
[21] = system: NCI-H226 lung
[22] = system: PC-3 prostate
[23] = system: SF-295 CNS
[24] = system: UACC-62 melanoma
[25] = system: T-47D breast
[26] = system: OVCAR-5 ovarian
[27] = system: KM12 colon
[28] = system: SK-OV-3 ovarian
[29] = system: LOX IMVI melanoma
[30] = system: OVCAR-8 ovarian
[31] = system: NCI-H522 lung
[32] = system: SK-MEL-28 melanoma
[33] = system: SNB-75 CNS
[34] = system: HL-60(TB) leukemia
[35] = system: HOP-62 NSCLC
[36] = system: HOP-92 NSCLC
[37] = system: HCT-116 colon
[38] = system: MALME-3M melanoma
[39] = system: SR leukemia
[40] = system: MDA-MB-435
[41] = system: SNB-19 CNS
[42] = system: MCF7 breast
[43] = system: M14 melanoma
[44] = system: UACC-257 melanoma
[45] = system: IGROV1 ovarian
[46] = system: OVCAR-3 ovarian
[47] = system: SN12C renal
[48] = system: BT-549 breast
[49] = system: CCRF-CEM leukemia
[50] = system: COLO 205 colon
[51] = system: CAKI-1 renal
[52] = system: SF-268 CNS
[53] = system: MOLT-4 leukemia
[54] = system: MDA-MB-231 breast
[55] = system: NCI/ADR-RES ovarian
[56] = system: EKVX NSCLC
[57] = system: SF-539 CNS

COc1cc(/C=C/C(=O)c2cc(OC)c(OC)c(OC)c2)ccc1Oc1nc(Nc2ccc(F)cc2)nc(N(C)C)n1 gave a GI50 [1] of 2.07 µM, a TGI [1] of 10.6 µM and a GI50 [2] of 2.03 µM. For the same molecule, the TGI [2] was 4.16 µM, the GI50 [3] was 2.3 µM and the TGI [3] was 7.48 µM. It also gave a GI50 [4] of 3.99 µM, a TGI [4] of 18.7 µM and a GI50 [5] of 0.503 µM. The TGI [5] was 2.43 µM, the GI50 [6] was 1.54 µM and the TGI [6] was 3.55 µM. The GI50 [7] was 1.55 µM, the TGI [7] was 3.27 µM and the GI50 [8] was 1.35 µM. It also gave a TGI [8] of 3.51 µM, a GI50 [9] of 1.45 µM and a TGI [9] of 3.3 µM. For the same molecule, the GI50 [10] was 1.63 µM, the TGI [10] was 3.63 µM and the GI50 [11] was 1.18 µM. It also gave a TGI [11] of 2.75 µM, a GI50 [12] of 2.16 µM and a TGI [12] of 4.83 µM. It also gave a GI50 [13] of 1.12 µM, a TGI [13] of 2.36 µM and a GI50 [14] of 0.751 µM. The TGI [14] was 5.21 µM, the GI50 [15] was 4.49 µM and the TGI [15] was 19.2 µM. It also gave a GI50 [16] of 1.69 µM, a TGI [16] of 3.79 µM and a GI50 [17] of 1.4 µM. The TGI [17] was > 100 µM, the GI50 [18] was 3.99 µM and the TGI [18] was 15.2 µM. For the same molecule, the GI50 [19] was 2.53 µM, the TGI [19] was 7.3 µM and the GI50 [20] was 1.45 µM. The TGI [20] was 3.23 µM, the GI50 [21] was 1.44 µM and the TGI [21] was 3.23 µM. It also gave a GI50 [22] of 2.77 µM, a TGI [22] of 30.9 µM and a GI50 [23] of 1.98 µM. For the same molecule, the TGI [23] was 5.49 µM, the GI50 [24] was 1.41 µM and the TGI [24] was 3 µM. The GI50 [25] was 1.87 µM, the TGI [25] was 56.1 µM and the GI50 [26] was 1.48 µM. For the same molecule, the TGI [26] was 3.89 µM, the GI50 [27] was 3.63 µM and the TGI [27] was 88.6 µM. It also gave a GI50 [28] of 8.42 µM, a TGI [28] of 29.9 µM and a GI50 [29] of 0.478 µM. It also gave a TGI [29] of 1.69 µM, a GI50 [30] of 1.55 µM and a TGI [30] of 6.57 µM. The GI50 [31] was 1.47 µM, the TGI [31] was 3.24 µM and the GI50 [32] was 1.8 µM. The TGI [32] was 4.07 µM, the GI50 [33] was 2.54 µM and the TGI [33] was 21.1 µM. The GI50 [34] was 2.21 µM, the TGI [34] was 8.24 µM and the GI50 [35] was 1.83 µM. It also gave a TGI [35] of 3.88 µM, a GI50 [36] of 1.67 µM and a TGI [36] of 6.72 µM. It also gave a GI50 [37] of 1.4 µM, a TGI [37] of 3.18 µM and a GI50 [38] of 1.75 µM. The TGI [38] was 4.21 µM, the GI50 [39] was 0.7 µM and the TGI [39] was > 100 µM. The GI50 [40] was 1.63 µM, the TGI [40] was 3.54 µM and the GI50 [41] was 1.86 µM. For the same molecule, the TGI [41] was 4.58 µM, the GI50 [42] was 1.06 µM and the TGI [42] was 4.07 µM. The GI50 [43] was 2.83 µM, the TGI [43] was 10.8 µM and the GI50 [44] was 2.83 µM. It also gave a TGI [44] of 12.6 µM, a GI50 [45] of 1.93 µM and a TGI [45] of 4.49 µM. For the same molecule, the GI50 [46] was 2.57 µM, the TGI [46] was > 100 µM and the GI50 [47] was 1.23 µM. The TGI [47] was 2.73 µM, the GI50 [48] was 1.56 µM and the TGI [48] was 3.2 µM. For the same molecule, the GI50 [49] was 2.19 µM, the TGI [49] was > 100 µM and the GI50 [50] was 4.45 µM. For the same molecule, the TGI [50] was 16.8 µM, the GI50 [51] was 1.98 µM and the TGI [51] was 6.67 µM. For the same molecule, the GI50 [52] was 3.43 µM, the TGI [52] was > 100 µM and the GI50 [53] was 0.472 µM. For the same molecule, the TGI [53] was > 100 µM, the GI50 [54] was 1.48 µM and the TGI [54] was 3.58 µM. For the same molecule, the GI50 [55] was 1.42 µM, the TGI [55] was 3.39 µM and the GI50 [56] was 2.15 µM. For the same molecule, the TGI [56] was 9.12 µM, the GI50 [57] was 1.64 µM and the TGI [57] was 3.09 µM.
